From patent US10987342B2, “Methods and compositions for transdermal delivery of a non-sedative amount of dexmedetomidine” (Teikoku Pharma USA, Inc., priority 2013, dated 2021)
Like-named read-outs stand apart in the source and are kept apart here.

solubility of dexmedetomidine (in Duro-Tak 87-2979): less than 2%
solubility of dexmedetomidine (in Duro-Tak 387/87-2353 (acid functionalized acrylate polymer)): 10-15%
solubility of dexmedetomidine (in hydroxyl functionalized acrylate polymer): less than 1%
solubility of dexmedetomidine (in levulinic acid): ~60%
solubility of dexmedetomidine (in oleic acid): ~40%
SMILES: Cc1cccc([C@H](C)c2cnc[nH]2)c1C [dexmedetomidine, Dexmedetomidine]
